The source of these data is patent US8680076B2, “Methods of treatment, improvement and prevention using haloaryl substituted aminopurines” (Signal Pharmaceuticals, LLC, priority 2010, dated 2014).

The IC50 is the concentration that inhibits the measured activity by half.

The test system of assay [1] is SKH-1 mice epidermis. The experiment in a line: UVB-induced apoptosis (TUNEL) in skin of SKH-1 mice. In kind it is in vivo, mouse. The settings on record: 75 mg/kg PO BID for 5 days before UVB 0.5 J/cm^2, vs vehicle. The source says: Ultraviolet B (UVB) light is known to induce breaks in DNA (nicks) that can trigger the process of apoptosis, and these nicks can be labeled and visualized with terminal deoxynucleotidyl transferase dUTP nick end labeling (TUNEL). TUNEL technology identifies DNA breaks by labeling free 3′-OH terminals with modified (fluorescing) nucleotides in an enzymatic reaction that makes the damaged apoptotic cells fluoresce. This study was one of a series of pharmacology studies designed to determine the effects of the JNK inhibitor, Compound JNKi-1, on UVB-induced apoptosis in the skin of mice.
Female SKH-1 mice (Charles River, n=17 total) were obtained at a body weight of 15 g to 20 g. Mice were housed in regular shoebox cages and allowed to become acclimated for a minimum of 1 week. Mice were fed Harlan Teklad (No. 7001) 4% mouse/rat diet and water ad libitum and were maintained on a 12-hour light/dark cycle. […]
A Leica microscope with a CoolSNAP digital camera was used to obtain 5 random 20× magnification fluorescent images from five sections of skin epidermis and the number of TUNEL-positive green cells was counted to determine the average number of cells per animal and group (n=5).
Statistical one-way analysis of variance (ANOVA) was performed followed by Bonferroni's multiple comparison test (Graph Pad Prism). The data were expressed as mean±standard error of the mean (SEM).

The test system of assay [2] is phospho-c-Jun (JNK) in EpiDermFT reconstituted human skin equivalent. The experiment in a line: UVB-stimulated JNK activation in EpiDermFT skin model (Western blot). In kind it is cell-based. Here is the method: Two in vitro systems, nHEK and the EpiDermFT™ skin model, were used in this study. The nHEK cells and EpiDermFT™ samples were pretreated with JNKi-1 at concentrations of 0.1, 3, and 10 μM prior to 60 mJ/cm^2 and 135 mJ/cm^2 UVB irradiation, respectively. After UV stimulation, the activities of JNK were measured as levels of phospho-c-Jun via immunoblotting of cell lysates using an anti-phospho-c-Jun S63 antibody. Phospho-Stat3 was also evaluated as a marker of JNK activation.
Samples were cultured in 2 mL of serum-free maintenance media (EFT-200-MM) for 72 hr. After 72 hr, the media was replaced with 2 mL of fresh media containing 0, 0.1, 3, and 10 μM of JNKi-1, respectively). Samples were allowed to soak at 37° C., 5% CO2 for 6 hr, then removed from the media and placed into 2 mL of PBS and irradiated with 135 mJ/cm^2 of UVB. Controls were sham irradiated. Samples were placed back into 2 mL of media containing JNKi-1. Samples were harvested at 30 minutes and 3 hr post UV treatment. Each sample was cut in half; one half was snap frozen in liquid nitrogen, homogenized in lysis buffer, and lysates stored at −80° C. The other half was placed in 10% neutral buffer formalin for 3 hr and transferred to 100% ethanol for processing
cells were pre-incubated with either dimethyl sulfoxide (DMSO) (FIG. 31, lanes 1, 2, and 12 to 15) or JNKi-1 at the indicated concentration (lanes 3 to 11) for 1 hr and then irradiated without (Control, lanes 1 and 2) or with UVB at 60 mJ/cm^2 (lanes 3 to 15). Cells were lysed 30 minutes after UV irradiation and cell lysates were subjected to sodium dodecyl sulfate polyacrylamide gel electrophoresis (SDS-PAGE) before Western blotting with anti-phospho-c-Jun antibody. […]
Western analysis: For Western blot analysis, 20 to 25 μg of total protein were applied to SDS-PAGE gels followed by electrophoresis and blotting. […] The intensity of each band was quantified by the Odyssey 2.1 software and exported into Excel for further analysis. […]
(Immunoblotting shows a protein as a band on a membrane.)

“Also recorded” adds a separate entry of the source.

As to `O[C@H]1CC[C@H](Nc2ncc3nc(Nc4c(F)cc(F)cc4F)n([C@H]4CCOC4)c3n2)CC1` [JNKi-1, 4-((9-((3S)-tetrahydro-3-furanyl)-8-((2,4,6-trifluorophenyl)amino)-9H-purin-2-yl)amino)-trans-cyclohexanol], the “number of TUNEL-positive cells in epidermis 24 hr post UV exposure” value in assay [1] is “can inhibit apoptotic cell death; also recorded: significantly (p<0.01) decreased”. In assay [2] (EpiDermFT, 0.1, 3, 10 μM), the “UVB-induced JNK activation (phospho-c-Jun level), in words” value is listed as “strongly Inhibits; also recorded: significantly blocks”. The “inhibition of phospho-Stat3” value in assay [2] (EpiDermFT, 30 minutes post UV, data not shown) is listed as “minimal”. Also, the IC50 in assay [2] (Homo sapiens, light or radiation study, 0.5 h, EpiDermFT, UVB 135 mJ/cm^2, lysed 30 minutes after UV, read-out: IC50 for p-cJun) was 100 to 3000 nM.
